Results as given in ChEMBL document CHEMBL1201862, “PubChem BioAssay data set” (2004).
Calls of active or inactive are those of the source. Rule as the data show it, for most assays here: actives have a measured EC50 and inactives only a lower limit.

How the values were obtained:
[1] = biological target: T1, Serine/threonine-protein phosphatase (Candida dubliniensis (strain CD36 / CBS 7987 / NCPF 3949 / NRRLY-17841) (Yeast), UniProt B9W6M3); assay: calcineurin pathway inhibitors in yeast reporter, dose response, S. cerevisiae, CDRE-lacZ, luminescence, secondary (AID 2388); type: functional, cell-based;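 also: yeast reporter cells carrying a calcineurin-responsive lacZ construct stimulated with calcium chloride; luminescent beta-galactosidase reporter signal in whole cells rather than isolated phosphatase activity; potency for inhibition where a drop in reporter signal means calcineurin blockade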
T1 sequence (B9W6M3 whole entry): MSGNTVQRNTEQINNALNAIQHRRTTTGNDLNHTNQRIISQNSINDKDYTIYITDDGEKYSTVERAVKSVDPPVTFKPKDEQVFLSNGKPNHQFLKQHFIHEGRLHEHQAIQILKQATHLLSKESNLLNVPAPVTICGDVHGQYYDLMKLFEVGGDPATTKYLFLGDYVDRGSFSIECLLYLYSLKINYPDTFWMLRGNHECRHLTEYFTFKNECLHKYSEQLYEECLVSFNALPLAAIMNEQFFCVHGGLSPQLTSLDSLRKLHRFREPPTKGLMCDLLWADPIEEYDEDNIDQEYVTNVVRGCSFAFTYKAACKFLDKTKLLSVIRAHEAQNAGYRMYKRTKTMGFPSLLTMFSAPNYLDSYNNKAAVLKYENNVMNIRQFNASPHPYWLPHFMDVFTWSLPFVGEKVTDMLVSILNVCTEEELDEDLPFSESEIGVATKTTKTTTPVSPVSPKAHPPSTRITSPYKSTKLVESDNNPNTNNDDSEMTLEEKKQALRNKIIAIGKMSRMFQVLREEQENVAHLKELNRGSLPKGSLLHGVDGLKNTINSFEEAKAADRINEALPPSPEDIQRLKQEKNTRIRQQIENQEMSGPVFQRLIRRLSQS

[2] = biological target: ATP-dependent molecular chaperone HSP82 (Candida albicans (strain WO-1) (Yeast), UniProt C4YTQ8); assay: loss of DOC-induced GRE-beta-galactosidase reporter signal, dose response, Hsp90 inhibitor project, S. cerevisiae, luminescence (AID 2400); type: functional, cell-based;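 also: beta-galactosidase luminescence from glucocorticoid response element reporter as proxy for Hsp90 function; inhibitor potency where signal loss means Hsp90 inhibition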
[3] = NIH-3T3 fibroblast cytotoxicity, dose response, cytotoxicity control, cell-based, fluorescence, Alamar Blue, secondary assay (AID 2327); type: functional;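 also: NIH-3T3 mouse fibroblasts cultured with fluconazole at 8 µg/mL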
[4] = C. albicans growth with fluconazole, confirmation, fluorescence, retest (AID 2467); type: functional, cell-based
[5] = inhibitors of intracellular T. cruzi replication, confirmation, NIH3T3 host cells, beta-gal luminescence (AID 2044); type: functional, cell-based;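 also: intracellular parasites grown in NIH/3T3 mouse fibroblasts as host cells; luminescent beta-galactosidase reporter signal from transgenic T. cruzi replicating inside host cells; inhibitors lower the luminescence signal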
Protein Wnt-3a = Protein Wnt-3a (Mus musculus, UniProt P27467); assay: Wnt3a-driven reporter signaling inhibition, dose response, selectivity assay for Gli-SUFU antagonist project, Wnt-LIGHT cells, luminescence (AID 651570); type: functional; conditions: read-out: IC50_Mean;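 also: Wnt-LIGHT reporter cells stimulated with conditioned medium from Wnt3a-producing cells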
[6] = cytotoxicity toward NIH3T3 fibroblasts, dose response, counter-screen, cell-based, ATP luminescence, mouse fibroblasts (AID 2010); type: functional;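 also: cells exposed to compound for about 90 hours before reading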
INS1 = assay: beta cell apoptosis inhibitors, cytokine rescue, dose response, luminescence, retest (AID 449756); type: functional, cell-based; conditions: Rattus norvegicus;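 also: cell death triggered by IL-1 beta plus TNF-alpha plus IFN-gamma mixture; protective hits raise ATP signal compared with cytokine alone wells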
[7] = tested on: Streptococcus sp. 'group A'; assay: growth inhibition of control SK(-) GAS strain, dose response, counter-screen for streptokinase expression inhibitor project, luminescence, kanamycin, BacTiterGlo, confirmation (AID 1900); type: functional, organism-based
Streptokinase A = biological target: T2, Streptokinase A (Streptococcus pyogenes serotype M1, UniProt P10520); assay: S. pyogenes streptokinase expression inhibitors, potency, dose response, plasminogen activation absorbance, OD405 (AID 1914); type: functional, Streptococcus pyogenes M1 GAS;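 also: secreted streptokinase activity via plasminogen activation per viability signal from cell pellet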
T2 sequence (P10520 whole entry): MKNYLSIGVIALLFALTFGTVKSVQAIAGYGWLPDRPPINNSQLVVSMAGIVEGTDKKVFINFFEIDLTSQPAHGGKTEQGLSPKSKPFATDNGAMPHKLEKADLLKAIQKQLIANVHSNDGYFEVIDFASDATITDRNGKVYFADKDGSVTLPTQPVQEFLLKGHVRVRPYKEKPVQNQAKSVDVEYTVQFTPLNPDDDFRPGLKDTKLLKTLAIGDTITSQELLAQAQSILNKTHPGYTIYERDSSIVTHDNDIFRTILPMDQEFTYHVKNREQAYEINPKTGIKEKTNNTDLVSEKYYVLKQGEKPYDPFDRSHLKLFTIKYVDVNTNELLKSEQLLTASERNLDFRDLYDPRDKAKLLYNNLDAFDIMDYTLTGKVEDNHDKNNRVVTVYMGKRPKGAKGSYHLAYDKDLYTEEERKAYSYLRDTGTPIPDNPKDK

Streptococcus = assay: Group A Streptococcus viability loss, dose response, counter-screen for streptokinase expression inhibitor project, luminescence, BacTiterGlo (AID 1915); type: functional, organism-based;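 also: potency for reduction of bacterial viability or growth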
[8] = biological target: T3, High affinity choline transporter 1 (Homo sapiens, UniProt Q9GZV3); assay: CHT inhibitors, dose response, cell-based, 5-point CRC, membrane potential dye (AID 504840); type: functional
T3 sequence (Q9GZV3 whole entry): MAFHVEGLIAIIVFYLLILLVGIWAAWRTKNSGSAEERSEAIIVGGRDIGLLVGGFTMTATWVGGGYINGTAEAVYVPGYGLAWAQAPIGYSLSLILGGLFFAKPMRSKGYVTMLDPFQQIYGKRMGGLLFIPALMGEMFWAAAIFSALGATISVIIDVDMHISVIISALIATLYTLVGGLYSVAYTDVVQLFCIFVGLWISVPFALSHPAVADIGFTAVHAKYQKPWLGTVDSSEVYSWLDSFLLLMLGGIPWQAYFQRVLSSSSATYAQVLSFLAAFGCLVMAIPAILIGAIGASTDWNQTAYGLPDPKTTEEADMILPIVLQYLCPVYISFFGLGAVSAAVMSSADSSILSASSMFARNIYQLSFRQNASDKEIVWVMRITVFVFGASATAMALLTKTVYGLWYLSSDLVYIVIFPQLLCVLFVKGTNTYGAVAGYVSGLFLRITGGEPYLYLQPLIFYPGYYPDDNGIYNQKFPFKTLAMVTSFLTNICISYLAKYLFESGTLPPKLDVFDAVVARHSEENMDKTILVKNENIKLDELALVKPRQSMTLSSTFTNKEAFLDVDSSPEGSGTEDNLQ

[9] = Shn3 3'UTR reporter inhibitors, dose response, cell-based, Clone20 osteoblasts, firefly luciferase, cherry-picked (AID 624132); type: functional;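 also: firefly luciferase luminescence from reporter carrying the Shn3 3'UTR in osteoblasts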
[10] = HepG2 cell cytotoxicity, dose response, cytotoxicity control for Shn3 inhibitor project, CellTiter-Glo, cherry-picked (AID 624134); type: functional, cell-based
[11] = control 3'UTR Renilla luciferase suppression, dose response, counter-screen for Shn3 inhibitor project, cell-based, Clone20-Shn3RL, cherry-picked (AID 624133); type: functional

Sequence of ATP-dependent molecular chaperone HSP82 (C4YTQ8 whole entry): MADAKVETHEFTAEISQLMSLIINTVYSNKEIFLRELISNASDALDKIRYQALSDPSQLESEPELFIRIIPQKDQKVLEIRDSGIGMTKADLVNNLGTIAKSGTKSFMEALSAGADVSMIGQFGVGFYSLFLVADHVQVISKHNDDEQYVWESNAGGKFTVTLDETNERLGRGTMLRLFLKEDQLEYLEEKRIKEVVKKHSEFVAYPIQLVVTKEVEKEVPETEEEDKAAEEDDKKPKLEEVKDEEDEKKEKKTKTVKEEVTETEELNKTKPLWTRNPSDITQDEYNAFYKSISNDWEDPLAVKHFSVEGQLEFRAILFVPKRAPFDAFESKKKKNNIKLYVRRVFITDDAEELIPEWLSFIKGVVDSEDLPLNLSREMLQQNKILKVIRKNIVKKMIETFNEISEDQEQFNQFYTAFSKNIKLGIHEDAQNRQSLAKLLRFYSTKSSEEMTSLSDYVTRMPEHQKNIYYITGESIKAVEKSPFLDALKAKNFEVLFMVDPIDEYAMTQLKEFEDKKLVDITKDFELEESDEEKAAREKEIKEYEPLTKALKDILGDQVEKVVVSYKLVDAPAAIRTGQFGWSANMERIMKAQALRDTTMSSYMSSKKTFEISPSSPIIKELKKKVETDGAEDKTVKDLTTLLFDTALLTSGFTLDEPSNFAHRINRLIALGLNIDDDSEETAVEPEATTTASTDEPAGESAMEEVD
Sequence of Protein Wnt-3a (P27467 whole entry): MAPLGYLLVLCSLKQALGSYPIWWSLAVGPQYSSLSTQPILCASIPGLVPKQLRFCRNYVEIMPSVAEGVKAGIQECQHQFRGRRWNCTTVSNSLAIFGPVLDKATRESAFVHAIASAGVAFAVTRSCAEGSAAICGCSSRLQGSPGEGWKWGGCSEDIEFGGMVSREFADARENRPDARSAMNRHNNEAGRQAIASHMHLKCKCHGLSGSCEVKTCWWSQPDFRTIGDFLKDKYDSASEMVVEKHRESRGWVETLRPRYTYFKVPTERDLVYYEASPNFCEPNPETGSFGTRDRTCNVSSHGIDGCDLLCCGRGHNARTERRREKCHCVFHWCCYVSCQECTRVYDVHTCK

Structure (SMILES)	EC50 [1]	EC50 [2]	EC50 [3]	EC50 [4]	IC50 (Protein Wnt-3a)	further results
O=C(c1ccc(Cn2c(=O)[nH]c3ccccc3c2=O)cc1)N1CCN(c2ccc(F)cc2)CC1	> 180 µM (inactive)	> 150 µM (inactive)	14.3 µM (active)	0.912 µM (active)		
CCCc1c(CC)c(=N)c2ccccc2n1C					11.3 µM (active)	EC50 [5]: 0.121 µM (active); EC50 [6]: > 60 µM (not active)
CC(C)C(=O)NC(c1cccs1)c1cc([N+](=O)[O-])c2cccnc2c1O (centres undefined)	> 180 µM (inactive)	24.6 µM (active)	13.4 µM (active)	0.242 µM (active)		AC50 (INS1): 3.87 µM (active); EC50 [7]: 2.59 µM (active); EC50 (Streptokinase A): > 150 µM (not active); EC50 (Streptococcus): 6.98 µM (active)
O=C(Nc1ccc(C(F)(F)F)cc1)C1CCN(S(=O)(=O)c2ccc(N3CCCC3=O)cc2)CC1					2.18 µM (active)	AC50 (INS1): 3.1 µM (active)
O=C(Nc1nnc(CCc2ccccc2)s1)c1ccco1	> 180 µM (inactive)	> 150 µM (inactive)	> 150 µM (inactive)	1.08 µM (active)		
C[C@@H]1COC(=O)[C@H](NC(=O)OCC2c3ccccc3-c3ccccc32)C/C=C\C[C@@H](CC(=O)N[C@@H](CO)Cc2ccccc2)C(=O)N1					12.3 µM (active)	
O=C(N/N=C/c1cc2ccccc2nc1Cl)[C@H]1C[C@@H]1c1ccccc1					39.9 µM (inactive)	
Cn1c(N2CCOCC2)c(/C=N/OC(=O)c2ccc(F)cc2)c2ccccc21	> 180 µM (inactive)	> 160 µM (inactive)	> 160 µM (inconclusive)	0.382 µM (active)		EC50 [5]: 0.596 µM (active); EC50 [6]: 1.98 µM (active); IC50 [8]: 15.9 µM (active)
Sc1nnc(C2CCCCC2)n1/N=C/c1ccc(Br)s1	> 180 µM (inactive)	18.9 µM (active)	> 150 µM (inactive)	1.07 µM (active)		
CCC(=O)NC(c1ccco1)c1cc(Cl)c2cccnc2c1O (centres undefined)	> 180 µM (inactive)	> 150 µM (inactive)	24.9 µM (active)	0.56 µM (active)		AC50 [9]: 1.31 µM (active); EC50 [5]: 1.97 µM (active); AC50 [10]: 7.81 µM (active); EC50 [6]: 7.21 µM (active); AC50 [11]: 3.57 µM (active)
Cc1cc(C)c[n+](C(C)C(=O)c2ccc(-c3ccccc3)cc2)c1 (centres undefined)					8.95 µM (active)	
